This note sets out measurements from patent publication US11319328B2 (priority 2017, dated 2022).

Holding throughout (experiment): cells
What all share (type): cell-based

For one test, the system named is Hepatoma HepG2. The following applies: cultured 48 h, MTT. The procedure: (§1) A cell strain: Hepatoma HepG2, cervical cancer Hela, lung cancer A549, breast cancer MCF7 cell line and human normal liver cell HL7702 were purchased from Wuhan Boster Biological Technology Co., Ltd.;
(§2) HepG2, Hela, A549, MCF 7 cells in logarithmic growth phase and human normal hepatocytes HL7702 were centrifuged at 1500 rpm for 5 min, and the supernatant was discarded; the cells were digested with a suitable amount of trypsin, and then suspended with a suitable amount of culture medium (HepG2, Hela and HL7702 cells were suspended with penicillin-streptomycin RPMI1640 culture medium containing 10% calf serum, A549 and MCF 7 cells with penicillin-streptomycin high glucose DMEM culture medium containing 10% calf serum, to adjust the cell concentration to 1.5×10^4 cells/well, the cells were seeded in 96-well plates, and the following experimental groups were set:
(§3) 0.10 mL of the cell suspension was added to each well, and incubated at 37° C., 5% CO2 and saturated humidity for 12 h, and the culture medium was discarded when the cell density was nearly 70%. […] 100 μl of 5 mg/ml MTT was added per well, standing for 4 h at 37° C. 100 μl of DMSO was added to each well, followed by shaking on a shaker for 10 min at 37° C., the absorbance (OD) was measured at 492 nm, and the MTT ratio was calculated as the OD value of drug group/OD value of negative control group.

The test system of test [1] is breast cancer MCF7 cell line. As to conditions: cultured 48 h, MTT. The procedure:
as §1, §2, §3

The test system of the next test is cervical cancer Hela. As to conditions: cultured 48 h, MTT. The procedure: as §1, §2, §3
Test [2] deals with human normal liver cell HL7702. As to conditions: human normal hepatocytes HL7702, cultured 48 h, MTT. The procedure: as §1, §2, §3
A further test concerns lung cancer A549. The following applies: cultured 48 h, MTT. Here is the method:
as §1, §2, §3

Broadly, the IC50 is the concentration needed to halve the response being measured. Read a low IC50 as greater potency in that assay. In the case of `COc1cc([C@@H]2c3cc4c(cc3[C@@H](Nc3ccc5[nH]ccc5c3)[C@@H]3COC(=O)[C@H]23)OCO4)cc(OC)c1O` [Compound 34, 4β-NH-(5-aminoindole)-4′-demethylepipodophyllotoxin], the IC50 with Hepatoma HepG2 was > 100 µM; in test [1] it was 76.3 ± 5.7 µM; in the test on cervical cancer Hela, 21.7 ± 5.3 µM; in test [2], > 100 µM; in the test on lung cancer A549, > 100 µM.

`COc1cc([C@@H]2c3cc4c(cc3[C@@H](Nc3ccc(C)c(-c5nccc(-c6cccnc6)n5)c3)[C@@H]3COC(=O)[C@H]23)OCO4)cc(OC)c1OC` [Compound 19, 4β-NH-(2-(5-amino-2-methylphenyl)-4-(3-pyridyl)pyrimidine)-podophyllotoxin]: the IC50 in the test on Hepatoma HepG2 is 6.6 ± 0.1 µM; in test [1] it was 9.5 ± 0.8 µM; with cervical cancer Hela, 4.8 ± 0.4 µM; in test [2], > 100 µM; in the test on lung cancer A549, 7.7 ± 0.6 µM.

Regarding `COc1cc(C2c3cc4c(cc3C(Nc3ccc5cc[nH]c5c3)C3COC(=O)C23)OCO4)cc(OC)c1O` (stereo not drawn) [Compound 35, 4β-NH-(6-aminoindole)-4′-demethylepipodophyllotoxin], the IC50 in the test with Hepatoma HepG2 was 19.5 ± 2.4 µM; in test [1] it was 34.5 ± 3.8 µM; in the test with cervical cancer Hela it was 21.1 ± 2.9 µM; in test [2], > 100 µM; with lung cancer A549, 6.5 ± 1 µM.

For `COc1cc(C2c3cc4c(cc3C(Nc3ccc5[nH]ncc5c3)C3COC(=O)C23)OCO4)cc(OC)c1OC` (stereo not drawn) [Compound 12, 4β-NH-(5-indazolamine) podophyllotoxin], the IC50 in the test with Hepatoma HepG2 came to 0.3 ± 0.02 µM; in test [1], 0.4 ± 0.03 µM; with cervical cancer Hela, 0.5 ± 0.01 µM; in test [2], 50 µM; with lung cancer A549 it was 0.2 ± 0.02 µM.

Turning to `COc1cc(C2c3cc4c(cc3C(Nc3cccc5ncccc35)C3COC(=O)C23)OCO4)cc(OC)c1O` (stereo not drawn) [Compound 27, 4β-NH-(5-aminoquinoline)-4′-demethylepipodophyllotoxin], the concentration for half-maximal inhibition (IC50) came out at 1.6 ± 0.8 µM in the test on Hepatoma HepG2; 2.4 ± 0.9 µM in test [1]; 2.1 ± 1 µM in the test on cervical cancer Hela; 15.6 ± 1.8 µM in test [2]; 1.3 ± 0.2 µM in the test on lung cancer A549.

Turning to “4β-NH-(7-indazolamine)-4′-demethylepipodophyllotoxin [Compound 33]”, the IC50 with Hepatoma HepG2 stood at 22.5 ± 2.6 µM; in test [1], 16.4 ± 0.9 µM; in the test on cervical cancer Hela, 34 ± 1.1 µM; in test [2], 29.8 ± 1.9 µM; in the test with lung cancer A549 it was 24.5 ± 5 µM.

`COc1cc(C2c3cc4c(cc3C(Nc3ccc5c(c3N)C(=O)c3ccccc3C5=O)C3COC(=O)C23)OCO4)cc(OC)c1O` (stereo not drawn) [Compound 22, 4β-NH-(1,2-diaminoanthraquinone)-4′-demethylepipodophyllotoxin]: the IC50 is > 100 µM in the test on Hepatoma HepG2; 18.1 ± 2.8 µM in test [1]; > 100 µM in the test with cervical cancer Hela; > 100 µM in test [2]; > 100 µM in the test on lung cancer A549.

Turning to `COc1cc(C2c3cc4c(cc3C(Nc3cccc5ccc(C)nc35)C3COC(=O)C23)OCO4)cc(OC)c1O` (stereo not drawn) [Compound 30, 4β-NH-(8-aminoquinaldine)-4′-demethylepipodophyllotoxin], the half-maximal inhibitory concentration (IC50) in the test with Hepatoma HepG2 was 5 ± 1.1 µM; in test [1] it was 3 ± 0.5 µM; in the test on cervical cancer Hela it was 4.2 ± 0.8 µM; in test [2], > 100 µM; in the test on lung cancer A549, 0.5 ± 0.05 µM.

As for `COc1cc(C2c3cc4c(cc3C(Nc3ccc5ncccc5c3)C3COC(=O)C23)OCO4)cc(OC)c1O` (stereo not drawn) [Compound 26, 4β-NH-(6-aminoquinoline)-4′-demethylepipodophyllotoxin], the 50% inhibitory concentration (IC50) in the test with Hepatoma HepG2 was 10 ± 1.9 µM; in test [1], 4.3 ± 0.8 µM; with cervical cancer Hela, 5.7 ± 1.1 µM; in test [2], 22.8 ± 4.2 µM; in the test with lung cancer A549, 2 ± 0.5 µM.

Take `COc1cc(C2c3cc4c(cc3C(Nc3cccc5c3C(=O)c3ccccc3C5=O)C3COC(=O)C23)OCO4)cc(OC)c1O` (stereo not drawn) [Compound 20, 4β-NH-(1-aminoanthraquinone)-4′-demethylepipodophyllotoxin]: the concentration for half-maximal inhibition (IC50) is 8.8 ± 2.1 µM in the test with Hepatoma HepG2; 2.3 ± 0.1 µM in test [1]; 8.5 ± 2.1 µM with cervical cancer Hela; 53.7 ± 5.3 µM in test [2]; 1.8 ± 0.2 µM in the test with lung cancer A549.

As for `COc1cc([C@@H]2c3cc4c(cc3[C@@H](Nc3cccc5cccnc35)[C@@H]3COC(=O)[C@H]23)OCO4)cc(OC)c1O` [Compound 29, 4β-NH-(8-aminoquinoline)-4′-demethylepipodophyllotoxin], the IC50 stood at 4.5 ± 1.5 µM in the test on Hepatoma HepG2; 1.5 ± 0.4 µM in test [1]; 3.8 ± 0.2 µM in the test with cervical cancer Hela; 73 ± 7.8 µM in test [2]; 2.8 ± 0.4 µM with lung cancer A549.

Consider `COc1cc(C2c3cc4c(cc3C(Nc3cccc5c3C(=O)c3ccccc3C5=O)C3COC(=O)C23)OCO4)cc(OC)c1OC` (stereo not drawn) [Compound 1, 4β-NH-(1-aminoanthraquinone) podophyllotoxin], for which the half-maximal inhibitory concentration (IC50) in the test with Hepatoma HepG2 is 0.9 ± 0.05 µM; in test [1], 0.7 ± 0.01 µM; in the test on cervical cancer Hela, 0.7 ± 0.1 µM; in test [2], > 100 µM; with lung cancer A549, 0.2 ± 0.01 µM.

Take `COc1cc([C@@H]2c3cc4c(cc3[C@@H](Nc3cccc5cccnc35)[C@@H]3COC(=O)[C@H]23)OCO4)cc(OC)c1OC` [Compound 10, 4β-NH-(8-aminoquinoline) podophyllotoxin]: the IC50 with Hepatoma HepG2 amounted to 4.6 ± 0.4 µM; in test [1] it was 1 ± 0.1 µM; in the test with cervical cancer Hela, 2.7 ± 0.3 µM; in test [2], 37 ± 4.8 µM; in the test on lung cancer A549, 1.2 ± 0.2 µM.

`COc1cc([C@@H]2c3cc4c(cc3[C@@H](Nc3cccc5ncccc35)[C@@H]3COC(=O)[C@H]23)OCO4)cc(OC)c1OC` [Compound 8, 4β-NH-(5-aminoquinoline) podophyllotoxin]: the IC50 (in the test with Hepatoma HepG2; in test [1]; in the test with cervical cancer Hela; in test [2]; with lung cancer A549) was > 100 µM throughout.

For the compound `COc1cc(C2c3cc4c(cc3C(Nc3ccc5c(c3)C(=O)c3ccc(N)cc3C5=O)C3COC(=O)C23)OCO4)cc(OC)c1O` (stereo not drawn) [Compound 24, 4β-NH-(2,6-diaminoanthraquinone)-4′-demethylepipodophyllotoxin], the half-inhibitory concentration (IC50) in the test with Hepatoma HepG2 was > 100 µM; in test [1] it was 4.2 ± 1.1 µM; in the test on cervical cancer Hela, > 100 µM; in test [2], > 100 µM; with lung cancer A549, > 100 µM.

For `COc1cc([C@@H]2c3cc4c(cc3[C@@H](Nc3nc(N)nc5ccccc35)[C@@H]3COC(=O)[C@H]23)OCO4)cc(OC)c1OC` [Compound 6, 4β-NH-(2,4-quinazolinediamine) podophyllotoxin], the half-maximal inhibitory concentration (IC50) in the test with Hepatoma HepG2 was > 100 µM; in test [1], 24.5 ± 4.4 µM; with cervical cancer Hela it was 19.2 ± 1.9 µM; in test [2], 13.8 ± 1.9 µM; in the test on lung cancer A549, 14.3 ± 2.3 µM.

Consider “4β-NH-(2-(5-amino-2-methylphenyl)-4-(3-pyridyl) pyrimidine)-4′-demethylepipodophyllotoxin [Compound 38]”, for which the IC50 in the test with Hepatoma HepG2 was 29.5 ± 3.2 µM; in test [1], 14.5 ± 3.8 µM; in the test with cervical cancer Hela, 35.1 ± 5.9 µM; in test [2], > 100 µM; in the test on lung cancer A549, 15.5 ± 2 µM.

With `COc1cc([C@@H]2c3cc4c(cc3[C@@H](Nc3cccc5c3C(=O)c3cccc(N)c3C5=O)[C@@H]3COC(=O)[C@H]23)OCO4)cc(OC)c1O` [Compound 23, 4β-NH-(1,5-diaminoanthraquinone)-4′-demethylepipodophyllotoxin], the 50% inhibitory concentration (IC50) (in the test on Hepatoma HepG2; in test [1]; in the test with cervical cancer Hela; in test [2]; in the test with lung cancer A549) was > 100 µM in each case.
